Data reported in patent publication US20230233569A1 (Revolution Medicines, Inc., priority 2020, published 2023).

Experiments:
[1] = tested on: Capan-1 (K-Ras G12V); experiment: CellTiter-Glo cell viability assay, 5-day treatment; format: cell-based; settings: Homo sapiens, CAPAN-1, 120 h, 5-day treatment; read-out: Capan-1 Cell Viability assay data (K-Ras G12V, IC50)
Method in brief: (§1)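 Five-day compound treatment of plated cells; luminescent read after ~30 min at RT. Percent-of-DMSO data fit to a four-parameter logistic model.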

[2] = tested on: NCI-H358 (K-Ras G12C); experiment: as above; format: cell-based; settings: Homo sapiens, NCI-H358, 120 h, 5-day treatment; read-out: H358 Cell Viability assay data (K-Ras G12C, IC50)
Method in brief: as §1

[3] = target: KRAS G12C (Homo sapiens, UniProt P01116+P62937, G12C); experiment: Disruption of BRAF RBD interaction with Ras (FRET / MOA assay, with Cyclophilin A); format: biochemical; settings: read-out: KRAS G12C FRET data, IC50
Method in brief: (§2)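 Measured via TR-FRET after 3 h at 25 °C with compound (30 μM top, threefold serial steps, ten concentrations) plus K-Ras, Cyclophilin A and BRAF RBD, followed by 1.5 h with anti-His europium (10 nM) and anti-GST allophycocyanin (50 nM). Signal loss versus DMSO gave IC50.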

[4] = target: KRAS G12D (Homo sapiens, UniProt P01116+P62937, G12D); experiment: as above; format: biochemical; settings: read-out: KRAS G12D FRET data, IC50
Method in brief: as §2

[5] = target: KRAS G12S (Homo sapiens, UniProt P01116+P62937, G12S); experiment: as above; format: biochemical; settings: read-out: KRAS G12S FRET data, IC50
Method in brief: as §2

[6] = target: KRAS G12V (Homo sapiens, UniProt P01116+P62937, G12V); experiment: as above; format: biochemical; settings: KRAS G12V; read-out: KRAS G12V FRET data IC50
Method in brief: as §2

[7] = target: KRAS G13C (Homo sapiens, UniProt P01116+P62937, G13C); experiment: as above; format: biochemical; settings: read-out: KRAS G13C FRET data, IC50
Method in brief: as §2

[8] = target: KRAS G13D (Homo sapiens, UniProt P01116+P62937, G13D); experiment: as above; format: biochemical; settings: KRAS G13D; read-out: KRAS G13D FRET data IC50
Method in brief: as §2

[9] = target: KRAS WT (Homo sapiens, UniProt P01116+P62937); experiment: as above; format: biochemical; settings: KRAS WT; read-out: KRAS WT FRET data IC50
Method in brief: as §2

[10] = target: NRAS G12C (Homo sapiens, UniProt P01111+P62937, G12C); experiment: as above; format: biochemical; settings: NRAS G12C; read-out: NRAS G12C FRET data IC50
[11] = target: KRAS Q61H (Homo sapiens, UniProt P01116+P62937, Q61H); experiment: as above; format: biochemical; settings: KRAS Q61H; read-out: KRAS Q61H FRET data IC50
Method in brief: (§3)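 TR-FRET in 25 mM HEPES pH 7.3, 100 mM NaCl, 5 mM MgCl2, 0.1% BSA: 25 μM Cyclophilin A, 12.5 nM His6-Ras-GMPPNP, 50 nM GST-BRAF RBD with compound (10-point 3-fold series from 30 μM), 3 h at 25° C. Anti-His Eu/anti-GST APC added, 1.5 h more; IC50 from decreased FRET ratio versus DMSO.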

[12] = target: NRAS Q61K (Homo sapiens, UniProt P01111+P62937, Q61K); experiment: as above; format: biochemical; settings: NRAS Q61K; read-out: NRAS Q61K FRET data IC50
Method in brief: as §3

[13] = target: NRAS Q61R (Homo sapiens, UniProt P01111+P62937, Q61R); experiment: as above; format: biochemical; settings: NRAS Q61R; read-out: NRAS Q61R FRET data IC50
Method in brief: as §3

[14] = target: NRAS WT (Homo sapiens, UniProt P01111+P62937); experiment: as above; format: biochemical; settings: NRAS WT; read-out: NRAS WT FRET data IC50
Method in brief: as §3

Chain of KRAS G12C (P01116 1-169 isoform P01116-2 G12C): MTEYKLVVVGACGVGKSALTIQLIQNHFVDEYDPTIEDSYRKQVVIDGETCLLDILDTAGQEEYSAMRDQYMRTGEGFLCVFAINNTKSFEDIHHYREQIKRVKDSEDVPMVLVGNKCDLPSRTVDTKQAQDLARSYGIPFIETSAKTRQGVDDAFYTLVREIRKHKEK
Chain of KRAS G12C (P62937 whole entry): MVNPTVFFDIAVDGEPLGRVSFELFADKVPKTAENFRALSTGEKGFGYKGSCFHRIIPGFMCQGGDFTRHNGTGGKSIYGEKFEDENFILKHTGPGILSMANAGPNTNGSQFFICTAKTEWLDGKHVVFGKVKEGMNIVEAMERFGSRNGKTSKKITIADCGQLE
Chain of NRAS Q61R (P01111 whole entry Q61R): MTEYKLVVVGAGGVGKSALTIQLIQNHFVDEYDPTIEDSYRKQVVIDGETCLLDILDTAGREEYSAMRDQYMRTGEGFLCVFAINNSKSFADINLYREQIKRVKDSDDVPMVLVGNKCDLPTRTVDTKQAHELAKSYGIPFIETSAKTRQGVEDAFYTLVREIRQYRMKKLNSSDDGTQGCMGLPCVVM
Chain of NRAS Q61R (P62937 whole entry): as the sequence (P62937 whole entry) above
Chain of KRAS G12D (P01116 1-169 isoform P01116-2 G12D limits assumed): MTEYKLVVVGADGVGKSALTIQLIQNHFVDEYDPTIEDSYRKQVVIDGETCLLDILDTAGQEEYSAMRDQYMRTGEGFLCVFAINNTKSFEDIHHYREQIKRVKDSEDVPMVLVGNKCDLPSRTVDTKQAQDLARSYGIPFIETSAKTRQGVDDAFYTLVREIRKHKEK
Chain of KRAS G12D (P62937 whole entry): as the sequence (P62937 whole entry) above
Chain of KRAS G13D (P01116 1-169 isoform P01116-2 G13D limits assumed): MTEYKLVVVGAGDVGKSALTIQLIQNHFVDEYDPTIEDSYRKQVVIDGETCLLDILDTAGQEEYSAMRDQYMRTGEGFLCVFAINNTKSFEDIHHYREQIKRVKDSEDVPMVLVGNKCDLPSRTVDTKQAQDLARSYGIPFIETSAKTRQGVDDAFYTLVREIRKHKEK
Chain of KRAS G13D (P62937 whole entry): as the sequence (P62937 whole entry) above
Chain of NRAS WT (P01111 whole entry): as the sequence (P01111 whole entry Q61R) above, with R61Q counted along it
Chain of NRAS WT (P62937 whole entry): as the sequence (P62937 whole entry) above
Chain of KRAS G12V (P01116 1-169 isoform P01116-2 G12V limits assumed): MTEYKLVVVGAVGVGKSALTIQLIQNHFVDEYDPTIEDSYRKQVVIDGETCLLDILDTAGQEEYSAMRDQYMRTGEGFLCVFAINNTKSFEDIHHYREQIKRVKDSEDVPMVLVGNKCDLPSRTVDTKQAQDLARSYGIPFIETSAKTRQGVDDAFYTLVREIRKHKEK
Chain of KRAS G12V (P62937 whole entry): as the sequence (P62937 whole entry) above
Chain of NRAS G12C (P01111 whole entry G12C): as the sequence (P01111 whole entry Q61R) above, with G12C, R61Q counted along it
Chain of NRAS G12C (P62937 whole entry): as the sequence (P62937 whole entry) above
Chain of NRAS Q61K (P01111 whole entry Q61K): as the sequence (P01111 whole entry Q61R) above, with R61K counted along it
Chain of NRAS Q61K (P62937 whole entry): as the sequence (P62937 whole entry) above
Chain of KRAS Q61H (P01116 1-169 isoform P01116-2 Q61H limits assumed): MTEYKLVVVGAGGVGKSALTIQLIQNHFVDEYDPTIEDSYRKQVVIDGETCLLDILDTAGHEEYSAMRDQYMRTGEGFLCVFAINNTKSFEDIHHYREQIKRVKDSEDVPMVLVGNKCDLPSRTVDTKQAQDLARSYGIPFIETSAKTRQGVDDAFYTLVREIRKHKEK
Chain of KRAS Q61H (P62937 whole entry): as the sequence (P62937 whole entry) above
Chain of KRAS WT (P01116 1-169 isoform P01116-2 limits assumed): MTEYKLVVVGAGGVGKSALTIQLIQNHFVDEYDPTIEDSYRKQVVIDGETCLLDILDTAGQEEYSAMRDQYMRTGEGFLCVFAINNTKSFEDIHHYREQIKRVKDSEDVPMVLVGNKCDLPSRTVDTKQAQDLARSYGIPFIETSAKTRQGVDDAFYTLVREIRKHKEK
Chain of KRAS WT (P62937 whole entry): as the sequence (P62937 whole entry) above
Chain of KRAS G13C (P01116 1-169 isoform P01116-2 G13C): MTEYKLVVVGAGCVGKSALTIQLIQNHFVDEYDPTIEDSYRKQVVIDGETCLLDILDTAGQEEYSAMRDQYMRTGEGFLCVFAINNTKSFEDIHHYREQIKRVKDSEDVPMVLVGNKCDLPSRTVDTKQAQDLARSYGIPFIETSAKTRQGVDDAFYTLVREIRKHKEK
Chain of KRAS G13C (P62937 whole entry): as the sequence (P62937 whole entry) above
Chain of KRAS G12S (P01116 1-169 isoform P01116-2 G12S limits assumed): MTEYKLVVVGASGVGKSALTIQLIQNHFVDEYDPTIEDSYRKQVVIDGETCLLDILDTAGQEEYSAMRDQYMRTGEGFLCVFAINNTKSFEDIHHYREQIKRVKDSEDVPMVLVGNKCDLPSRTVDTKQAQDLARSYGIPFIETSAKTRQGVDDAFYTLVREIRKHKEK
Chain of KRAS G12S (P62937 whole entry): as the sequence (P62937 whole entry) above

| Structure (SMILES) | IC50 [2] [nM] | IC50 [3] [nM] | IC50 [4] [nM] | IC50 [5] [nM] | IC50 [6] [nM] | IC50 [7] [nM] | IC50 [8] [nM] | IC50 [9] [nM] | IC50 [10] [nM] | IC50 [11] [nM] | IC50 [12] [nM] | IC50 [13] [nM] | IC50 [14] [nM] | IC50 [1] [nM] |
| --- | --- | --- | --- | --- | --- | --- | --- | --- | --- | --- | --- | --- | --- | --- |
| CCn1c(-c2cccnc2[C@H](C)OC)c2c3cc(ccc31)-c1csc(n1)C[C@H](NC(=O)[C@H](C(C)C)N(C)C(=O)[C@H]1CCN(C(=O)CNC)C1)C(=O)N1CCC[C@H](N1)C(=O)OCC(C)(C)C2 [Example A99] | > 10000 | 100 to 1000 | 100 to 1000 | 1000 to 10000 | 1000 to 10000 | 100 to 1000 | 1000 to 10000 | 100 to 1000 | 100 to 1000 | 100 to 1000 | 1000 to 10000 | 1000 to 10000 | 100 to 1000 | > 10000 |
| CCn1c(-c2cc(N3CCN(C)CC3)cnc2[C@H](C)OC)c2c3cc(ccc31)-c1csc(n1)C[C@H](NC(=O)[C@H](C(C)C)N(C)C(=O)N1C[C@@H](C)N(C)C[C@H]1C)C(=O)N1CCC[C@H](N1)C(=O)OCC(C)(C)C2 (atropisomer, axis not shown) [Example A476] | < 10 | 100 to 1000 | 100 to 1000 | 100 to 1000 | 100 to 1000 | 100 to 1000 | 100 to 1000 | 100 to 1000 | 10 to 100 | 100 to 1000 | 100 to 1000 | 100 to 1000 | 100 to 1000 | < 10 |
| CCn1c(-c2cccnc2[C@H](C)OC)c2c3cc(ccc31)-c1csc(n1)C[C@H](NC(=O)[C@H](C(C)C)N(C)C(=O)N1CCC(C(=O)C(F)(F)F)CC1)C(=O)N1CCC[C@H](N1)C(=O)OCC(C)(C)C2 [Example A422] | 10 to 100 | 10 to 100 | 100 to 1000 | 10 to 100 | 10 to 100 | 10 to 100 | 100 to 1000 | 10 to 100 | 10 to 100 | 10 to 100 | 10 to 100 | 10 to 100 | 10 to 100 | 100 to 1000 |

The next lines start with results.

| IC50 [2] [nM] | IC50 [3] [nM] | IC50 [4] [nM] | IC50 [5] [nM] | IC50 [6] [nM] | IC50 [7] [nM] | IC50 [8] [nM] | IC50 [9] [nM] | IC50 [10] [nM] | IC50 [11] [nM] | IC50 [12] [nM] | IC50 [13] [nM] | IC50 [14] [nM] | Structure (SMILES) | IC50 [1] [nM] |
| --- | --- | --- | --- | --- | --- | --- | --- | --- | --- | --- | --- | --- | --- | --- |
| 100 to 1000 | 100 to 1000 | 1000 to 10000 | 1000 to 10000 | 100 to 1000 | 100 to 1000 | 1000 to 10000 | 100 to 1000 | 100 to 1000 | 100 to 1000 | 100 to 1000 | 100 to 1000 | 100 to 1000 | CCn1c(-c2cccnc2[C@H](C)OC)c2c3cc(ccc31)-c1csc(n1)C[C@H](NC(=O)[C@H](C(C)C)N(C)C(=O)N1CC(OC)C1)C(=O)N1CC[C@H](C)[C@H](N1)C(=O)OCC(C)(C)C2 [Example A579, N-((2S)-1-(((6^3S,6^4S,4S,Z)-1^1-ethyl-1^2-(2-((S)-1-methoxyethyl)pyridin-3-yl)-6^4,10,10-trimethyl-5,7-dioxo-6^1,6^2,6^3,6^4,6^5,6^6-hexahydro-1^1H-8-oxa-2(4,2)-thiazola-1(5,3)-indola-6(1,3)-pyridazinacycloundecaphane-4-yl)amino)-3-methyl-1-oxobutan-2-yl)-3-methoxy-N-methylazetidine-1-carboxamide] | 100 to 1000 |
| 10 to 100 | 10 to 100 | 100 to 1000 | 10 to 100 | 100 to 1000 | 100 to 1000 | 100 to 1000 | 10 to 100 | 10 to 100 | 10 to 100 | 100 to 1000 | 100 to 1000 | 10 to 100 | CCn1c(-c2cccnc2[C@H](C)OC)c2c3cc(ccc31)-c1csc(n1)C[C@H](NC(=O)[C@H](C(C)C)N(C)C(=O)N1CCCC13CCN(C)CC3)C(=O)N1CCC[C@H](N1)C(=O)OCC(C)(C)C2 [Example A498] | 100 to 1000 |
